Source: ChEMBL document CHEMBL3217564, “The design and synthesis of 5- and 6-isoxazolylbenzimidazoles as selective inhibitors of the BET bromodomains” (Medchemcomm, 2013)

Columns and labels:
[1] = target: T1, Bromodomain-containing protein 4 (Homo sapiens, UniProt O60885); assay: Inhibition of BRD4 bromodomain-1 (unknown origin) by AlphaScreen assay
[2] = Inhibition of CBP (unknown origin) by AlphaScreen assay; set-up: species or system Homo sapiens
[3] = target: PH-interacting protein (Homo sapiens) (UniProt Q8WWQ0); assay: Binding affinity to PHIP bromodomain-2 (unknown origin) assessed as change in melting temperature at 10 uM by differential scanning fluorimetric analysis
[4] = target: Transcription initiation factor TFIID subunit 1 (Homo sapiens) (UniProt P21675); assay: Binding affinity to TAF1 bromodomain-2 (unknown origin) assessed as change in melting temperature at 10 uM by differential scanning fluorimetric analysis
Transcription initiation factor TFIID subunit 1 (Homo sapiens), sequence (P21675 whole entry): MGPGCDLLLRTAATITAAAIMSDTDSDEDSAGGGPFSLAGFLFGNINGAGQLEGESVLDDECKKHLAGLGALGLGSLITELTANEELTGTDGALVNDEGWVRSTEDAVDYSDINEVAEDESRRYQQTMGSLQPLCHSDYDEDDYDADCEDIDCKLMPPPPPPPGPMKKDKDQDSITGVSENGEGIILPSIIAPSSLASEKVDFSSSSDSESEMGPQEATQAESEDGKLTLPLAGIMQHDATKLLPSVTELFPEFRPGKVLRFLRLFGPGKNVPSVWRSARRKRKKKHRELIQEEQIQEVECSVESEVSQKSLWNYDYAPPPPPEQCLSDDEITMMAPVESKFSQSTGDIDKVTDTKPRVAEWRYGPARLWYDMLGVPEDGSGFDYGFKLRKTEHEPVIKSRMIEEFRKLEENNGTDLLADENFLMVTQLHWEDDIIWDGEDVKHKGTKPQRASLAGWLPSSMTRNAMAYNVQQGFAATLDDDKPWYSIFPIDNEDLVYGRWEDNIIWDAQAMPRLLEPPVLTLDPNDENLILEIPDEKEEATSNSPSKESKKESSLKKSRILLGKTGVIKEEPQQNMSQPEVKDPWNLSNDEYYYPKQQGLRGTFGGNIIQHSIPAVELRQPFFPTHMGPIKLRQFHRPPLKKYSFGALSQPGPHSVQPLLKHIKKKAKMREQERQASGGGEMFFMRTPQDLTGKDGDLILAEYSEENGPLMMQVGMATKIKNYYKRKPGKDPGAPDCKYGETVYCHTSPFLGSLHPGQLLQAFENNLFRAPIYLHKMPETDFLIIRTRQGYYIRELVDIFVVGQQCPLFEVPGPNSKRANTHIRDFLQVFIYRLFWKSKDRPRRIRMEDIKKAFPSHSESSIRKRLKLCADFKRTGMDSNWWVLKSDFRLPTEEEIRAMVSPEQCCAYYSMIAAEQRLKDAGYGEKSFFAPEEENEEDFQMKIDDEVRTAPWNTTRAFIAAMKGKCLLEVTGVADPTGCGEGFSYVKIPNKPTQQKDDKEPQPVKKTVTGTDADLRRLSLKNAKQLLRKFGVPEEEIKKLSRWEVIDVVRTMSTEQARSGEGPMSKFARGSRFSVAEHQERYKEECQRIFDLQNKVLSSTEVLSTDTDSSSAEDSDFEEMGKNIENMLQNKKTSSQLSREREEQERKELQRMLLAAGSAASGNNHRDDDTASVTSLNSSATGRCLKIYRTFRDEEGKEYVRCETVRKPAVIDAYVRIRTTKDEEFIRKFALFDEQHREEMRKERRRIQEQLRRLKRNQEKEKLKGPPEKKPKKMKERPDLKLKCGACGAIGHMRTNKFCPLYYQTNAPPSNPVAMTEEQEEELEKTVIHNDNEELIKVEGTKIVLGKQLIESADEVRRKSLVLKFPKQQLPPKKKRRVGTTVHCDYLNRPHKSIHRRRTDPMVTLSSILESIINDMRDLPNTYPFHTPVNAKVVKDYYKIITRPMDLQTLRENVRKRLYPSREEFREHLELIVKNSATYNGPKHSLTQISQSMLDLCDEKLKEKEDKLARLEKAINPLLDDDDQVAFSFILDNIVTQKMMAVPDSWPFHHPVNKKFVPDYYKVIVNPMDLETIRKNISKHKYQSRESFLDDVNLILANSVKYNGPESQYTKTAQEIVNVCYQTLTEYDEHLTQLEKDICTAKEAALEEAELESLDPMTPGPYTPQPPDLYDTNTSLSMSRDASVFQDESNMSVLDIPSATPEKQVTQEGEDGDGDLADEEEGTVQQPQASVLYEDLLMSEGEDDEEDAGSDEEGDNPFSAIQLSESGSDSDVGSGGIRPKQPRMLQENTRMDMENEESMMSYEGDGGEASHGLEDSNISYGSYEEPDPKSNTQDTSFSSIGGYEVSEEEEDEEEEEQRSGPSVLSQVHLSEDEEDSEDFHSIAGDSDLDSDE

[5] = target: T1, Bromodomain-containing protein 4; assay: Binding affinity to BRD4 bromodomain-2 (unknown origin) assessed as change in melting temperature at 10 uM by differential scanning fluorimetric analysis
[6] = target: Protein polybromo-1 (Homo sapiens) (UniProt Q86U86); assay: Binding affinity to PB1-5 bromodomain (unknown origin) assessed as change in melting temperature at 10 uM by differential scanning fluorimetric analysis
Protein polybromo-1 (Homo sapiens), sequence (Q86U86 whole entry): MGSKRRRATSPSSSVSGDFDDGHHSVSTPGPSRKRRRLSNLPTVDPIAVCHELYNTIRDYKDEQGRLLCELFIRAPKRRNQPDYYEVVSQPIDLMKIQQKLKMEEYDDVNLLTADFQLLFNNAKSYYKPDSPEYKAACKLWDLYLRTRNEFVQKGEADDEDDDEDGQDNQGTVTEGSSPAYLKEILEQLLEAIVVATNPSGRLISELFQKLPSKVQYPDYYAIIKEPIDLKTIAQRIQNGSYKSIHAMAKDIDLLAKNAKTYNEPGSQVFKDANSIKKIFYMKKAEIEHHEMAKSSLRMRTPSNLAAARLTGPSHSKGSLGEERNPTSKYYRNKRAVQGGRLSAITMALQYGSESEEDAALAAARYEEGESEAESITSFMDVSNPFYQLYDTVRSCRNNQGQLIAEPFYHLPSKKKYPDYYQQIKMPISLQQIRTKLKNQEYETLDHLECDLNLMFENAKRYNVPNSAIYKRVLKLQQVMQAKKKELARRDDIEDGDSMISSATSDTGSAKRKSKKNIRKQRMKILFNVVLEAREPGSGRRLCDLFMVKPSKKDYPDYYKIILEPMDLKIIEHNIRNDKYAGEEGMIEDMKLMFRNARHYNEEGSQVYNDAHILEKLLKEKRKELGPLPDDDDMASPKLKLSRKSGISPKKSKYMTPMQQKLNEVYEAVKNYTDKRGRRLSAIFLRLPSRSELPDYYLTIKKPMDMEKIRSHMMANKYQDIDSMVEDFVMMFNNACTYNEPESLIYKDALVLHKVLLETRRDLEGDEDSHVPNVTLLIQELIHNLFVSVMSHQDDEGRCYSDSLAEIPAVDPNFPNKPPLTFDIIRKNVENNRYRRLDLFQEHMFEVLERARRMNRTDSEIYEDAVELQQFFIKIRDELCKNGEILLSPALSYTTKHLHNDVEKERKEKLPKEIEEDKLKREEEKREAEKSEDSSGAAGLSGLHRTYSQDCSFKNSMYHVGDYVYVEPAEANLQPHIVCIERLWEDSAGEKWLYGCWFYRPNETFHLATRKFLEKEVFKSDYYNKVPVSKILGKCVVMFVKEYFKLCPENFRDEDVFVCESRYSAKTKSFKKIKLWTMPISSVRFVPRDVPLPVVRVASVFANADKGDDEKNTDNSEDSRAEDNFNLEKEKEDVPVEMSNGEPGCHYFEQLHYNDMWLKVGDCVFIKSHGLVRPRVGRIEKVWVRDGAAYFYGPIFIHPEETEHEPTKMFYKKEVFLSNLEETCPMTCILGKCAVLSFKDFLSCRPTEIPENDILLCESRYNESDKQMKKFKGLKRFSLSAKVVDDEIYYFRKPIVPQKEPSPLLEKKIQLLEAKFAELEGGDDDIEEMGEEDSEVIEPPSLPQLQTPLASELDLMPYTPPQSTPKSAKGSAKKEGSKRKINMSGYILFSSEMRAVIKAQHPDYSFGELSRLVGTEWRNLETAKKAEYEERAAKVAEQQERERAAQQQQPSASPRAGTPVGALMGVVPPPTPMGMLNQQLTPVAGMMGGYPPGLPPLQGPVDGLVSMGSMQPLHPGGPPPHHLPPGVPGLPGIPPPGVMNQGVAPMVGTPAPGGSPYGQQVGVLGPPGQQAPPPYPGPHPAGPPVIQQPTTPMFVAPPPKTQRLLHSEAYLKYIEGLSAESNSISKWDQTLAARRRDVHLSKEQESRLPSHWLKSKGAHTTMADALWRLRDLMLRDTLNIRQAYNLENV

Homo sapiens [7] = organism: Homo sapiens; assay: Binding affinity to CBP (unknown origin) assessed as change in melting temperature at 10 uM by differential scanning fluorimetric analysis
[8] = target: T2, Bromodomain-containing protein 9 (Homo sapiens) (UniProt Q9H8M2); assay: Binding affinity to BRD9 bromodomain (unknown origin) assessed as change in melting temperature at 10 uM by differential scanning fluorimetric analysis
T2 sequence (whole entry): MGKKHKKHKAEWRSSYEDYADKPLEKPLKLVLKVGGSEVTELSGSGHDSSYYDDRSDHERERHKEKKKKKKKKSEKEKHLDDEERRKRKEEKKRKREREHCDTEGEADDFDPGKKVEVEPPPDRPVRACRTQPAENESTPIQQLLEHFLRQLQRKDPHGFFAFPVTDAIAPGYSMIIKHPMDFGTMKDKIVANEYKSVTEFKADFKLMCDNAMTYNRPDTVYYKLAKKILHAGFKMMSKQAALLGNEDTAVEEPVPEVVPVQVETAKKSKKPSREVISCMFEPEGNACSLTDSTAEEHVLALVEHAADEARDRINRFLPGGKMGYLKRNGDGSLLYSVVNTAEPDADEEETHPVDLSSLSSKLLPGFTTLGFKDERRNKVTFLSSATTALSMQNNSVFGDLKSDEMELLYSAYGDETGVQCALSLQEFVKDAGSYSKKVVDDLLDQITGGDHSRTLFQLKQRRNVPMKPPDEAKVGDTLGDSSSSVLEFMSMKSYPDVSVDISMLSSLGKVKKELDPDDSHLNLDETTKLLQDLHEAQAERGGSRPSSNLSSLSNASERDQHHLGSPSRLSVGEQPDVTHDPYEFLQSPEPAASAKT

[9] = target: T3, Transcription intermediary factor 1-alpha (Homo sapiens) (UniProt O15164); assay: Binding affinity to TIF1alpha bromodomain (unknown origin) assessed as change in melting temperature at 10 uM by differential scanning fluorimetric analysis
T3 sequence (whole entry): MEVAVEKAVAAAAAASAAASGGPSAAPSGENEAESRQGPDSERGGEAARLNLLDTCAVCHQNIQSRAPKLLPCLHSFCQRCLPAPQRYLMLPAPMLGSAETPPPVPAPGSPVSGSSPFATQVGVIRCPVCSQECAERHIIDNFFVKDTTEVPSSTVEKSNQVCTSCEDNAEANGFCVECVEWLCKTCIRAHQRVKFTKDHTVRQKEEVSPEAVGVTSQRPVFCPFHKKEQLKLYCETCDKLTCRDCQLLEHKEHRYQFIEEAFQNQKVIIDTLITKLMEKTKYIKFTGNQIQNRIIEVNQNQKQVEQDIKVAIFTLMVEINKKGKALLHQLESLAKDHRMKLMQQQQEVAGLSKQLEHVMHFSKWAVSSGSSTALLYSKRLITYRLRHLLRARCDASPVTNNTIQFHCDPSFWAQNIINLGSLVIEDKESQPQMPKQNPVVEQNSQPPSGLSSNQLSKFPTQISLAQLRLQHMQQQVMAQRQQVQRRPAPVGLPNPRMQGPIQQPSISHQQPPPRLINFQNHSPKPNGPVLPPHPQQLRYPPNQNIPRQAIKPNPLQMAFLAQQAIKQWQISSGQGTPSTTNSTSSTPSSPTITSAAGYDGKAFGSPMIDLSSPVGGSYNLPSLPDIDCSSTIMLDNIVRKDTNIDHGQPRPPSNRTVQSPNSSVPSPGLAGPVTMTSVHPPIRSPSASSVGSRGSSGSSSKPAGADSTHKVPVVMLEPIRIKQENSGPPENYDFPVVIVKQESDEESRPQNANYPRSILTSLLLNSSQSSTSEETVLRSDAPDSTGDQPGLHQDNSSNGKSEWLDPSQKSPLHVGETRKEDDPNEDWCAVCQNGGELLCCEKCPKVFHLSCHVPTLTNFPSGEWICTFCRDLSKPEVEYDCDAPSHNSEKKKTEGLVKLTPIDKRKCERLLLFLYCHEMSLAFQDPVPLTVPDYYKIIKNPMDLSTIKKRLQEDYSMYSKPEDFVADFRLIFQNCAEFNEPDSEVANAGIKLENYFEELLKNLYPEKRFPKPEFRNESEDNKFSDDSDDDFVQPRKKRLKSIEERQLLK

[10] = target: Histone acetyltransferase KAT2B (Homo sapiens) (UniProt Q92831); assay: Binding affinity to PCAF bromodomain (unknown origin) assessed as change in melting temperature at 10 uM by differential scanning fluorimetric analysis
Histone acetyltransferase KAT2B (Homo sapiens), sequence (Q92831 whole entry, looked up): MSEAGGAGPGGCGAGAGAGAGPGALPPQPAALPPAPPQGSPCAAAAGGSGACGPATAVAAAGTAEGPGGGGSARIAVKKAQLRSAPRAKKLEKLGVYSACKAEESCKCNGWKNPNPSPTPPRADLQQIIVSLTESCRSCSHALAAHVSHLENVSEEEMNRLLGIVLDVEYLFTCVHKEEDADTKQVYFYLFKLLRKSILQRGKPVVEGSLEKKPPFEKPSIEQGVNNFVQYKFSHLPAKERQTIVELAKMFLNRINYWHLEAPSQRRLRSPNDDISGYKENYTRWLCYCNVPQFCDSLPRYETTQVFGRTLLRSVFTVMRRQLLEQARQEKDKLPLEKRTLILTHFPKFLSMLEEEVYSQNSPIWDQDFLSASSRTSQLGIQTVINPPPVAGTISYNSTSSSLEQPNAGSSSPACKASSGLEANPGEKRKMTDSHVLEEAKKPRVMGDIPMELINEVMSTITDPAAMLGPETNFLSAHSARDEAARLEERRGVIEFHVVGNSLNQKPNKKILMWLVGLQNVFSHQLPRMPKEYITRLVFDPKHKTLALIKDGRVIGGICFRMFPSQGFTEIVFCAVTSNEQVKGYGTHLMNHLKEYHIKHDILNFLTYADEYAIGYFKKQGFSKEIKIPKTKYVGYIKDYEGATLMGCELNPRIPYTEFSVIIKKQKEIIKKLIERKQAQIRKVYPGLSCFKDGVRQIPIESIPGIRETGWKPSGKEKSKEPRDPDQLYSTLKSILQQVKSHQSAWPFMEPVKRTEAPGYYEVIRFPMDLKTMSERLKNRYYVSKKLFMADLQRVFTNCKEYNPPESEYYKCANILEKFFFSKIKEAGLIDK

Homo sapiens [11] = organism: Homo sapiens; assay: Selectivity ratio of IC50 for BRD4 bromodomain-1 (unknown origin) to IC50 for CBP (unknown origin)
[12] = target: T4, ATPase family AAA domain-containing protein 2 (Homo sapiens) (UniProt Q6PL18); assay: Binding affinity to ATAD2 bromodomain (unknown origin) assessed as change in melting temperature at 10 uM by differential scanning fluorimetric analysis
T4 sequence (whole entry): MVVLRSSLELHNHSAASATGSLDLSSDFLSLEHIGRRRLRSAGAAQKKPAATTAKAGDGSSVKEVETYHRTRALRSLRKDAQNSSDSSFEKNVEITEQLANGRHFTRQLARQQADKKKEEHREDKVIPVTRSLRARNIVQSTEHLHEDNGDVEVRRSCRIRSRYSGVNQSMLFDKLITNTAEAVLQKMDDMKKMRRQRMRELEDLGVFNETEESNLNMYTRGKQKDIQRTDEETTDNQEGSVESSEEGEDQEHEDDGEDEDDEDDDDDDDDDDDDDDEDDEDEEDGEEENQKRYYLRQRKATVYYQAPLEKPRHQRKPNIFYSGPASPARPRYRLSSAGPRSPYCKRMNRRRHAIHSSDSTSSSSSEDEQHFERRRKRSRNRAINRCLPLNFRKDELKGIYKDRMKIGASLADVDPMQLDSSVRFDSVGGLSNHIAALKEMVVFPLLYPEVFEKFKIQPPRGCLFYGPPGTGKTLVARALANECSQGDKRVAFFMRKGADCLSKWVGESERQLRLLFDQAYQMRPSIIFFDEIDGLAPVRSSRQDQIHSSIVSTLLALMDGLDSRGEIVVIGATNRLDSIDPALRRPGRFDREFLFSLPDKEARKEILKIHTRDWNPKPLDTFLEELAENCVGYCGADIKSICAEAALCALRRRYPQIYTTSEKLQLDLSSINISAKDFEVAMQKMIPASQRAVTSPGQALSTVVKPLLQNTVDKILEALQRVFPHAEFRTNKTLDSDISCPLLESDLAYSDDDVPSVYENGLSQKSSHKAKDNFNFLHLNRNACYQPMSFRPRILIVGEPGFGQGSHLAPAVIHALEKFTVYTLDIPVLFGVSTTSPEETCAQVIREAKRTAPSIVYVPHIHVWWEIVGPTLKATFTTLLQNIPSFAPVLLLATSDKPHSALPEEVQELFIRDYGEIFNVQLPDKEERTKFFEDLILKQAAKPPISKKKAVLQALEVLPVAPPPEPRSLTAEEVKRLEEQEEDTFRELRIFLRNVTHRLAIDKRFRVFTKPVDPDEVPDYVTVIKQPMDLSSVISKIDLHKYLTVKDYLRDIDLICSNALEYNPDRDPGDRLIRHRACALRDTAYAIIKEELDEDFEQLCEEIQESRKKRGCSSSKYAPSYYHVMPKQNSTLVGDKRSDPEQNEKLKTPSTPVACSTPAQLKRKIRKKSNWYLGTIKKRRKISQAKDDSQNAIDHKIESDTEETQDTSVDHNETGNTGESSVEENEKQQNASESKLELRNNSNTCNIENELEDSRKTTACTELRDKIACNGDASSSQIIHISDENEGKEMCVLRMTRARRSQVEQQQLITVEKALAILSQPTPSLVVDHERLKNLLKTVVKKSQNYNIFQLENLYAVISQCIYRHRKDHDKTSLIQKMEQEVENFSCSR

Row | Compound | IC50 ([1]; read-out: pIC50 (converted)) | pIC50 [2] | further results
1 | Cc1noc(C)c1-c1ccc2ncn(Cc3ccccc3[N+](=O)[O-])c2c1 | 631 nM | < 4 | –
2 | Cc1noc(C)c1-c1ccc2c(c1)ncn2Cc1ccccc1[N+](=O)[O-] | 12600 nM | 4.8 | –
3 | Cc1noc(C)c1-c1ccc2c(c1)C(OCc1ccc3ccccc3n1)CC2 (racemic) | 20000 nM | – | –
4 | Cc1noc(C)c1-c1ccc2c(c1)ncn2Cc1ccc(Cl)cc1 | 2510 nM | 5.7 | –
5 | Cc1noc(C)c1-c1ccc2nc[nH]c2c1 | 6310 nM | 5.4 | –
6 | COc1ccc(Cn2cnc3ccc(-c4c(C)noc4C)cc32)cc1 | 794 nM | < 5 | –
7 | Cc1noc(C)c1-c1ccc2cc[nH]c2c1 | 20000 nM | < 5 | –
8 | Cc1noc(C)c1-c1ccc2ncn(Cc3ccc(C(=O)N(C)C)cc3)c2c1 | 2000 nM | 5.2 | –
9 | Cc1noc(C)c1-c1ccc2c(c1)C(O)(c1ccccc1)CC2 (racemic) | 1260 nM | 4.7 | –
10 | Cc1noc(C)c1-c1ccc2c(c1)C(OCCCN1CCOCC1)CC2 (racemic) | 6310 nM | – | –
11 | COc1ccc(Cn2c(C)nc3ccc(-c4c(C)noc4C)cc32)cc1 | 1580 nM | 4.6 | –
12 | Cc1noc(C)c1-c1ccc2c(c1)ncn2Cc1ccc(Cl)c(Cl)c1 | 10000 nM | 5.9 | –
13 | Cc1noc(C)c1-c1ccc2ncn(Cc3ccc(Cl)c(Cl)c3)c2c1 | 3980 nM | < 4 | –
14 | Cc1noc(C)c1-c1ccc2c(c1)ncn2Cc1cccc(Br)c1 | 1580 nM | 5.6 | –
15 | Cc1noc(C)c1-c1ccc2c(c1)C(OCCCN1CCCCC1)CC2 (racemic) | 6310 nM | – | –
16 | Cc1noc(C)c1-c1ccc2ncn(Cc3ccccc3C#N)c2c1 | 1000 nM | 5.9 | –
17 | Cc1noc(C)c1-c1ccc2c(c1)C(OCCCN1CCCC1)CC2 (racemic) | 6310 nM | – | –
18 | Cc1noc(C)c1-c1ccc2ncn(Cc3cccc(Br)c3)c2c1 | 1000 nM | < 5 | –
19 | Cc1noc(C)c1-c1ccc2ncn(Cc3cccc(C(=O)N(C)C)c3)c2c1 | 631 nM | 5.2 | –
20 | Cc1noc(C)c1-c1ccc2ncn(Cc3cccc(Cl)c3)c2c1 | 1260 nM | 4.7 | –
21 | Cc1noc(C)c1-c1ccc2c(c1)C(=O)CC2 | 63100 nM | < 4.6 | –
22 | Cc1noc(C)c1-c1ccc2ncn(Cc3cccc(F)c3)c2c1 | 631 nM | 4.9 | –
23 | Cc1noc(C)c1-c1ccc2ncn(Cc3ccc(C#N)cc3)c2c1 | 200 nM | < 4 | ΔTm [3]: -0.4 °C; ΔTm [4]: 0 °C; ΔTm [5]: 3.2 °C; IC50 ([1]; read-out: IC50): 180 nM; ΔTm [6]: -0.1 °C; ΔTm (Homo sapiens [7]): 1.1 °C; ΔTm [8]: 0.1 °C; ΔTm [9]: -0.2 °C; ΔTm [10]: -0.2 °C; Ratio IC50 (Homo sapiens [11]): 100; ΔTm [12]: -0.1 °C
24 | Cc1noc(C)c1-c1ccc2c(c1)nc(C)n2Cc1ccc(O)cc1 | 2000 nM | 5.1 | –
25 | Cc1noc(C)c1-c1ccc2c(c1)C(OCc1ccccc1)CC2 (racemic) | 31600 nM | – | –
26 | Cc1noc(C)c1-c1ccc2ncn(Cc3ccccc3Cl)c2c1 | 794 nM | < 5 | –
27 | Cc1noc(C)c1-c1ccc2c(c1)C(OCCCN1CCNCC1)CC2 (racemic) | 3980 nM | – | –
28 | COC(=O)c1ccc(Cn2cnc3ccc(-c4c(C)noc4C)cc32)cc1 | 1260 nM | < 4 | –
